Measurements reported in patent US20260055110A1 (Azura Ophthalmics Ltd., priority 2021, published 2026).

Assays:
[1] = target: T1, glucocorticoid receptor (GR) (Homo sapiens, UniProt P04150); test: Glucocorticoid Binding Assay, GR (h) (agonist radioligand); settings: IM9 cytosol, 3H-dexamethasone competitive binding
T1 construct: by mixing 1 mg of IM9 cytosol; host or cells: IM9 human lymphoblast cell cytosol
T1 sequence (P04150 1-777): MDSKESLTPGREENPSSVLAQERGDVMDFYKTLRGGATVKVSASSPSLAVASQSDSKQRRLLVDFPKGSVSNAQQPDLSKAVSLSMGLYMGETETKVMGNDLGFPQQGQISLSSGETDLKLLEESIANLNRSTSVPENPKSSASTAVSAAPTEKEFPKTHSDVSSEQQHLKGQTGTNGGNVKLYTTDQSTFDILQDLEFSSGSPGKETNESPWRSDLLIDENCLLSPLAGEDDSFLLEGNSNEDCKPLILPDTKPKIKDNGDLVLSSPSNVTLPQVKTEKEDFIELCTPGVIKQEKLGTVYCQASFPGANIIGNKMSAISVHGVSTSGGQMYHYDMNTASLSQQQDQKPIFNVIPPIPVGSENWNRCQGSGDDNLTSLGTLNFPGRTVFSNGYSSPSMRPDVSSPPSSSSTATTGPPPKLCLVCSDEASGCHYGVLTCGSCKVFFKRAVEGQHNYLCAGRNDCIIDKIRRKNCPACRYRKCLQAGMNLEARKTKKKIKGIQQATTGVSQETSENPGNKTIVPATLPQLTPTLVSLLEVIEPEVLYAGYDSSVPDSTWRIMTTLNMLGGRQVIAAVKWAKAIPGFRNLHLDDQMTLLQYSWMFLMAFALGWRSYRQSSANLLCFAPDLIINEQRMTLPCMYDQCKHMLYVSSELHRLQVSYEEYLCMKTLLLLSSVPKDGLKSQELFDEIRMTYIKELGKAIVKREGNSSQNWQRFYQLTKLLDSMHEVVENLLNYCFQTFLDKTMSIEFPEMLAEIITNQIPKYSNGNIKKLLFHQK
Procedure: GR (h) (agonist radioligand) assay performed by Eurofins Cerep, France using a method similar to the one described hereinbelow.
The human lymphoblast cell line IM9 is used as a source of the soluble glucocorticoid receptor (GR). The cells are grown to densities of 1 to 10×10^5 cells per milliliter in RPMI 1640 media containing 10% fetal bovine serum, penicillin (100 U/ml), streptomycin (100 μg/ml), and 2 mM L-glutamine at […] and 7% CO2 in a humidified incubator. The IM9 cells are harvested from the media by centrifugation for 10 minutes at 1500 g. Cells are washed in 12 volumes of Dulbecco's phosphate-buffered saline (PBS) and re-pelleted. Washed cells are resuspended in five to six volumes (per volume of packed cells) of homogenization buffer (10 mM TES, 10 mM sodium molybdate, 1 mM EDTA, pH 7.4, 20 mM 2-mercaptoethanol, and 10% glycerol), and the cells are broken by nitrogen cavitation using 2×15 minutes at 600 to 750 psi nitrogen in the N2 cavitator at 0° C. Cell disruption is confirmed by Hoffman contrast microscopy using a Nikon Diaphot. The broken cell preparation is then centrifuged at 27,000 g for 15 minutes, and the resultant supernatant was centrifuged at 103,000 g for 60 minutes at 4° C. The amount of protein in the supernatant fraction is determined using a BCA assay kit with a bovine serum albumin standard. Aliquots of the supernatant fraction are snap frozen in a dry ice-acetone bath and stored at −70° C. Competitive binding assays are done in duplicate in homogenization buffer (total volume of […]) by mixing 1 mg of IM9 cytosol, 0.05/ρCi (3 nM) of ^3H-dexamethasone, and Compounds described herein (10^−5 to 10^−11 M). After incubation at 0° C. for 16 to 18 hours, the assay is stopped by the addition of […] of a charcoal-dextran mixture (2% activated charcoal, 0.5% dextran in 10 mM Tris, 1 mM EDTA, pH 7.4). The assay mixture is further incubated at 0° C. for 10 minutes before being centrifuged for 5 minutes at 8200 g. A 100-μl sample of the supernatant (protein-bound steroid fraction) is assayed for radioactivity by liquid scintillation spectrometry, and the IC50 values were determined graphically.
In some instances, an ester is active in the glucocorticoid binding assay. In some instances, an ester retains activity, such as when attached to a keratolytic agent (or a radical thereof), in the glucocorticoid binding assay.

[2] = Aqueous Hydrolysis Stability Assay; settings: DPBS pH 7.4, 37° C.
Procedure: Example 2: Aqueous Hydrolysis Stability Assay
Determination of aqueous stability of the test compounds was performed using UPLC-MS. A test compound 10 mM stock solution was prepared in DMSO. 10 μL of the DMSO stock solution was dissolved in 990 μL of DPBS pH 7.4 buffer to prepare a 100 μM stock. A further dilution was made by dissolving 75 μl of 100 μM stock into 225 μL of DPBS. Final DMSO concentration is 0.25%. The solution is kept at 37° C. and injected without delay into the LCMS (Waters Xevo TQ-). Additional injections were performed at appropriate time points.
Half-life (T1/2) of the parent conjugate was calculated using the peak area or measured concentration of the parent conjugate at each time point in the linear region of the log—linear plot.

Rabbit Cornea Esterase = test: Rabbit Cornea Homogenate Stability Assay (Rabbit Cornea Esterase Assay); type: in vitro ADME
Procedure: Example 1: Rabbit Cornea Homogenate Stability Assay […]
Three to four rabbit corneas (e.g., New Zealand Whites (NZW) or Dutch Belted (DB)) of approx. 50 mg each were sliced and scraped with a scalpel and tweezers until reduced to small (1-3 mm), thin pieces. These were transferred into a glass vial containing approximately 2 mL of cold DPBS pH 7.4 buffer.
Sample was cooled intermittently on ice and shear homogenized for 3 minutes, then centrifuged for 3 min at 13,000 g. The supernatant was pipetted off into a vial, and total protein concentration determined at 280 nm. Sample was stored at −78° C.
10 mM Compound DMSO stocks were diluted to 10 μM in a glass vial: 10 μL of 10 mM Compound stock was added to 9,990 μl 50 mM DPBS, pH 7.4 buffer. Esterase homogenate was diluted to 300 ng/μl and 900 ng/μL in DPBS.
A heater shaker was set to 37° C. Into a suitable 96 well plate (Run Plate), 70 μL of 300 or 900 ng/μl esterase homogenate was pipetted into two rows as compounds were analyzed in duplicate (2 min, 5 min, 10 min, 20 min and 45 min). The plate was sealed and then warmed at 37° C. for 5 min.
Two 96 deep-well plates were put on ice (Kill Plates). To these, 990 μL of 50:50 MeCN—H2O were added to required rows, labelled 0 min 2 min, 5 min, 10 min, 20 min and 45 min. The plates were covered to minimize evaporation.
To both rows of the Run Plate, 70 μL of 10 μM compound solution was added. At the appropriate time point, 10 μL of the assay mixture was added to the matching kill plate well containing 990 μL of 50:50 cold MeCN—H2O. Samples were analyzed as soon as practicable by UPLC-MS (Waters Xevo TQ-S).
A heater shaker was set to 37° C. Into a suitable 96 well plate (Run Plate), 80 μL of 300 or 900 ng/μL esterase homogenate was pipetted into two rows as compounds were analyzed in duplicate (2 min, 5 min, 10 min, 20 min and 45 min). The plate was sealed and then warmed at 37° C. for 5 min.
Two 96 shallow-well plates were placed on ice (Kill Plates). To these, 180 μL of 60:40 MeCN-H2O+0.1% acetic acid are added to required rows. The plates were sealed to minimize evaporation.
To both rows of the Run Plate, 80 μL of 10 μM compound solution was added. At the appropriate time point, 20 μL of the assay mixture was added to the matching kill plate well containing 180 μL of 60:40 cold MeCN-H2O+0.1% acetic acid. For lipoic acid analysis, samples were analyzed as soon as practicable by LCMS (Waters Xevo TQ-S). For parent conjugate and parent analysis the samples are diluted further 1 in 10: 20 μL supernatant is added to 180 μL of 50:50 MeCN—H2O.

[3] = rabbit cornea homogenate 0.15 mg/mL total protein, NZW, 37° C.
[4] = rabbit cornea homogenate 0.45 mg/mL total protein, NZW, 37° C.
[5] = rabbit cornea homogenate 0.15 mg/mL total protein, DB, 37° C.
[6] = rabbit cornea homogenate 0.45 mg/mL total protein, DB, 37° C.

Row | Esterase (0.15 mg/mL) % parent released after 45 min (Rabbit Cornea Esterase; [3]) | Esterase (0.45 mg/mL) % parent released after 45 min (Rabbit Cornea Esterase; [4]) | Compound | further results
1 | B (NZW) (25% to 50%) | B (NZW) (25% to 50%) | C=CC(=O)N1C[C@H](Nc2ncnc3c2ccn3COC(=O)CCCC[C@@H]2CCSS2)CC[C@@H]1C [Compound 12] | Aqueous Stability (DPBS) % parent released after t min ([2]; t = 44): A (t = 44) (<25%)
2 | D (NZW) (>75%) | D (NZW) (>75%) | C=CC(=O)N1C[C@H](Nc2ncnc3c2ccn3C(C)OC(=O)OC(C)C)CC[C@@H]1C (stereo partly drawn) [Compound 22] | 
3 | A (NZW) (<25%) | A (NZW) (<25%) | C=CC(=O)N1C[C@H](Nc2ncnc3c2ccn3C(=O)OC(C)C)CC[C@@H]1C [Compound 23] | 
4 | C (NZW) (51% to 75%) | C (NZW) (51% to 75%) | CNS(=O)(=O)CC1CCC(N(C)c2ncnc3c2ccn3COC(=O)CCCC[C@@H]2CCSS2)CC1 (stereo partly drawn) [Compound 31] | Aqueous Stability (DPBS) % parent released after t min ([2]; t = 44): A (t = 44) (<25%)
5 | B (NZW) (25% to 50%) | C (NZW) (51% to 75%) | CC(OC(=O)CCCC[C@@H]1CCSS1)n1ccc2c(-c3cnn([C@H](CC#N)C4CCCC4)c3)ncnc21 (stereo partly drawn) [Compound 38] | Aqueous Stability (DPBS) % parent released after t min ([2]; t = 48): A (t = 48) (<25%)
6 | B (NZW) (25% to 50%) | C (NZW) (51% to 75%) | N#CC[C@@H](C1CCCC1)n1cc(-c2ncnc3c2ccn3C(=O)CCCC[C@@H]2CCSS2)cn1 [Compound 39] | Aqueous Stability (DPBS) % parent released after t min ([2]; t = 45): B (t = 45) (25% to 50%)
7 | D (NZW) (>75%) | D (NZW) (>75%) | N#CC[C@@H](C1CCCC1)n1cc(-c2ncnc3c2ccn3COC(=O)CCCC[C@@H]2CCSS2)cn1 [Compound 40] | Aqueous Stability (DPBS) % parent released after t min ([2]; t = 45): A (t = 45) (<25%)

Second part, the compound before the results:

Row | Compound | Esterase (0.15 mg/mL) % parent released after 45 min (Rabbit Cornea Esterase; [3]) | Esterase (0.45 mg/mL) % parent released after 45 min (Rabbit Cornea Esterase; [4]) | further results
8 | C[C@]12C=CC(=O)C=C1CC[C@H]1[C@@H]3CC[C@](OC(=O)CCCC[C@@H]4CCSS4)(C(=O)OCCl)[C@@]3(C)C[C@H](O)[C@@]12F |  |  | EC50 [1]: 0.35 nM
9 | C[C@@H]1C[C@H]2[C@@H]3C[C@H](F)C4=CC(=O)C=C[C@]4(C)[C@@]3(F)[C@@H](O)C[C@]2(C)[C@@]1(OC(=O)CCCC[C@@H]1CCSS1)C(=O)O [Chemical Synthesis Example 68, (6S,8S,9R,10S,11S,13S,14S,16R,17R)-17-((5-((R)-1,2-Dithiolan-3-yl)pentanoyl)oxy)-6,9-difluoro-11-hydroxy-10,13,16-trimethyl-3-oxo-6,7,8,9,10,11,12,13,14,15,16,17-dodecahydro-3H-cyclopenta[a]phenanthrene-17-carboxylic acid] |  |  | EC50 [1]: 21 nM
10 | CC(C)C(=O)OC(C)n1ccc2c(-c3cnn([C@H](CC#N)C4CCCC4)c3)ncnc21 (stereo partly drawn) [Compound 48] | A (NZW) (<25%) | A (NZW) (<25%) | 
11 | CC(C)C(=O)n1ccc2c(-c3cnn([C@H](CC#N)C4CCCC4)c3)ncnc21 [Compound 49] | D NZW) (>75%) | D (NZW) (>75%) | 
12 | CC(C)OC(=O)OC(C)n1ccc2c(-c3cnn([C@H](CC#N)C4CCCC4)c3)ncnc21 (stereo partly drawn) [Compound 50] |  |  | Aqueous Stability (DPBS) % parent released after t min ([2]; t = 44): B (t = 44) (25% to 50%); Esterase (0.15 mg/mL) % parent released after 45 min (Rabbit Cornea Esterase; [5]): D (DB) (>75%); Esterase (0.45 mg/mL) % parent released after 45 min (Rabbit Cornea Esterase; [6]): D (DB) (>75%)
13 | CC(C)OC(=O)n1ccc2c(-c3cnn([C@H](CC#N)C4CCCC4)c3)ncnc21 [Compound 51] |  |  | Aqueous Stability (DPBS) % parent released after t min ([2]; t = 45): A (t = 45) (<25%); Esterase (0.15 mg/mL) % parent released after 45 min (Rabbit Cornea Esterase; [5]): A (DB) (<25%); Esterase (0.45 mg/mL) % parent released after 45 min (Rabbit Cornea Esterase; [6]): B (DB) (25% to 50%)
14 | C[C@]12C=CC(=O)C=C1CC[C@@H]1[C@@H]2[C@@H](O)C[C@@]2(C)[C@H]1CC[C@]2(OC(=O)CCCC[C@@H]1CCSS1)C(=O)OCCl [Compound 59] |  |  | Aqueous Stability (DPBS) T1/2 after t min ([2]; t = 45): 31.6 min; Esterase (0.9 mg/mL) T1/2 (45 min) (Rabbit Cornea Esterase; rabbit cornea homogenate 0.9 mg/mL, NZW, 37° C.): 22.6 (NZW) min; Esterase (2.0 mg/mL) T1/2 (45 min) (Rabbit Cornea Esterase; rabbit cornea homogenate 2.0 mg/mL, NZW, 37° C.): 21.3 (NZW) min
15 | CC(=O)N[C@@H](CS)C(=O)O[C@]1(C(=O)OCC#N)[C@H](C)C[C@H]2[C@@H]3C[C@H](F)C4=CC(=O)C=C[C@]4(C)[C@@]3(F)[C@@H](O)C[C@@]21C [Compound 73B, Cyanomethyl (6S,8S,9R,10S,11S,13S,14S,16R,17R)-17-((acetyl-L-cysteinyl)oxy)-6,9-difluoro-11-hydroxy-10,13,16-trimethyl-3-oxo-6,7,8,9,10,11,12,13,14,15,16,17dodecahydro-3H-cyclopenta[a]phenanthrene-17-carboxylate] |  |  | Esterase (0.15 mg/mL) % parent released after 45 min (Rabbit Cornea Esterase; Table 13, rabbit cornea homogenate 0.15 mg/mL, rabbit breed not given): A (<25%); Esterase (0.45 mg/mL) % parent released after 45 min (Rabbit Cornea Esterase; Table 13, rabbit cornea homogenate 0.45 mg/mL, rabbit breed not given): A (<25%)
